Reference: patent US7273848B2, “Apolipoprotein A-I agonists and their use to treat dyslipidemic disorders” (priority 1997, dated 2007)
Non-standard residues stand in square brackets, D forms with d. Residues, ends and D or L forms follow the SMILES beside them. No end group written: not given here. Orn = NCCC[C@H](N)C(=O)O; Aib = CC(C)(N)C(=O)O

Molecular target: T1, LCAT (purified from human plasma) (Homo sapiens, UniProt P04180)
T1 construct: from tissue; host or cells: human plasma
T1 sequence (P04180 25-440): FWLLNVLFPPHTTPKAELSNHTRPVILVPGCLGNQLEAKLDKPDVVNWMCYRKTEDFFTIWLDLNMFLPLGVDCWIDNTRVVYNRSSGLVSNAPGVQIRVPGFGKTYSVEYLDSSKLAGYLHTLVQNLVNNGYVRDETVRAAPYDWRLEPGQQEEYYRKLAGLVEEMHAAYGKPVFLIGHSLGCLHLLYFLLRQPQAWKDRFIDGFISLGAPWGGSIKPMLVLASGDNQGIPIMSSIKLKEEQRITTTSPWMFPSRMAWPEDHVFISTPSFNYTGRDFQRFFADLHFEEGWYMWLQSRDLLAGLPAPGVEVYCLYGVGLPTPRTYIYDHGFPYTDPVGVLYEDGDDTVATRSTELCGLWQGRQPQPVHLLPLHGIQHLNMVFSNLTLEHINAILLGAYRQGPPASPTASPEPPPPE
Assay: LCAT activation assay
Format: biochemical
Details: LCAT activation as compared with native human ApoA-I (= 100%), equivalent masses
Outline: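 Substrate SUVs of EPC or POPC with 14C-cholesterol (20:1 molar ratio), in 10 mM Tris, 0.14 M NaCl, 1 mM EDTA, pH 7.4, were preincubated with peptide or equal mass of plasma ApoA-I. Reaction started with human plasma LCAT; activation was measured as cholesterol-to-ester conversion relative to ApoA-I (100%).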

Compound	ACTIVITY (%) LCAT
CC(C)C[C@H](NC(=O)[C@H](C)NC(=O)[C@H](CCC(=O)O)NC(=O)[C@H](CC(C)C)NC(=O)C(C)(C)NC(=O)[C@H](CCC(=O)O)NC(=O)[C@H](CC(N)=O)NC(=O)[C@H](CC(C)C)NC(=O)[C@H](CCCCN)NC(=O)[C@H](CCC(=O)O)NC(=O)[C@H](CCCNC(=N)N)NC(=O)[C@H](Cc1ccccc1)NC(=O)[C@H](CCC(=O)O)NC(=O)[C@H](CC(=O)O)NC(=O)[C@@H](N)CC(C)C)C(=O)N[C@@H](CCCCN)C(=O)N[C@@H](CCC(N)=O)C(=O)N[C@@H](CCCCN)C(=O)N[C@@H](CC(C)C)C(=O)N[C@@H](CCCCN)C(=O)O [compound 82, ~~LDEFREKLNEXLEALKQKLK] (H-LDEFREKLNE[Aib]LEALKQKLK-OH)	8%
CC(C)C[C@H](NC(=O)[C@H](C)NC(=O)[C@H](CCC(=O)O)NC(=O)[C@H](CC(C)C)NC(=O)[C@H](CC(C)C)NC(=O)[C@H](CCC(=O)O)NC(=O)[C@H](CC(N)=O)NC(=O)[C@H](CC(C)C)NC(=O)[C@H](CC(C)C)NC(=O)[C@H](CCC(=O)O)NC(=O)[C@H](CCCNC(=N)N)NC(=O)[C@H](Cc1ccccc1)NC(=O)[C@H](CC(C)C)NC(=O)[C@H](CC(=O)O)NC(=O)[C@H](CC(C)C)NC(=O)[C@@H](NC(=O)C(C)(C)N)C(C)C)C(=O)N[C@@H](CCCCN)C(=O)N[C@@H](CCC(N)=O)C(=O)N[C@@H](CCCCN)C(=O)N[C@@H](CC(C)C)C(=O)N[C@@H](CCCCN)C(=O)O [compound 32, XVLDLFRELLNELLEALKQKLK] (H-[Aib]VLDLFRELLNELLEALKQKLK-OH)	33%
CC(C)C[C@H](NC(=O)[C@H](C)NC(=O)[C@H](CCC(=O)O)NC(=O)[C@H](CC(C)C)NC(=O)C(C)(C)NC(=O)[C@H](CCC(=O)O)NC(=O)[C@H](CC(N)=O)NC(=O)[C@H](CC(C)C)NC(=O)[C@H](CCCCN)NC(=O)[C@H](CCC(=O)O)NC(=O)[C@H](CCCNC(=N)N)NC(=O)[C@H](Cc1ccccc1)NC(=O)[C@H](CCC(=O)O)NC(=O)[C@H](CC(=O)O)NC(=O)[C@H](CC(C)C)NC(=O)[C@H](Cc1c[nH]c2ccccc12)NC(=O)[C@@H]1CCCN1)C(=O)N[C@@H](CCCCN)C(=O)N[C@@H](CCC(N)=O)C(=O)N[C@@H](CCCCN)C(=O)N[C@@H](CC(C)C)C(=O)N[C@@H](CCCCN)C(=O)O [compound 64, PWLDEFREKLNEXLEALKQKLK] (H-PWLDEFREKLNE[Aib]LEALKQKLK-OH)	15%
PVLELFENLLEKLLDALQKKLK [compound 169]	17%
PVLDEFRELLNEELEALKQKLK [compound 103]	1%
PVLDEFREKLNELLEALKQKLK [compound 84]	7%
VLDLFRELLNEGLEALKQKLK [compound 47]	23%
AVLELFENLLERLLDALQKKLK [peptide 153]	49%
PLLELFENLLERLLDALQKKLK [peptide 150]	57%
CC(C)C[C@H](NC(=O)[C@H](C)NC(=O)[C@H](CCC(=O)O)NC(=O)[C@H](CC(C)C)NC(=O)C(C)(C)NC(=O)[C@H](CCC(=O)O)NC(=O)[C@H](CC(N)=O)NC(=O)[C@H](CC(C)C)NC(=O)[C@H](CCCCN)NC(=O)[C@H](CCC(=O)O)NC(=O)[C@H](CCCNC(=N)N)NC(=O)[C@H](Cc1ccccc1)NC(=O)[C@H](CCC(=O)O)NC(=O)[C@H](CC(=O)O)NC(=O)[C@H](CC(C)C)NC(=O)[C@@H](N)C(C)C)C(=O)N[C@@H](CCCCN)C(=O)N[C@@H](CCC(N)=O)C(=O)N[C@@H](CCCCN)C(=O)N[C@@H](CC(C)C)C(=O)N[C@@H](CCCCN)C(=O)O [compound 65, ~VLDEFREKLNEXLEALKQKLK] (H-VLDEFREKLNE[Aib]LEALKQKLK-OH)	15%
CC(C)C[C@H](NC(=O)[C@H](C)NC(=O)[C@H](CCCCN)NC(=O)[C@H](CC(C)C)NC(=O)C(C)(C)NC(=O)[C@H](CCC(=O)O)NC(=O)[C@H](CC(N)=O)NC(=O)[C@H](CC(C)C)NC(=O)[C@H](CCCCN)NC(=O)[C@H](CCC(=O)O)NC(=O)[C@H](CCCNC(=N)N)NC(=O)[C@H](Cc1ccccc1)NC(=O)[C@H](CCC(=O)O)NC(=O)[C@H](CC(=O)O)NC(=O)[C@H](CC(C)C)NC(=O)[C@@H](NC(=O)[C@@H]1CCCN1)C(C)C)C(=O)N[C@@H](CCCCN)C(=O)N[C@@H](CCC(N)=O)C(=O)N[C@@H](CCCCN)C(=O)N[C@@H](CC(C)C)C(=O)N[C@@H](CCCCN)C(=O)O [compound 93, PVLDEFREKLNEXLKALKQKLK] (H-PVLDEFREKLNE[Aib]LKALKQKLK-OH)	5%
CC(C)C[C@H](NC(=O)[C@H](C)NC(=O)[C@H](CCC(=O)O)NC(=O)[C@H](CC(C)C)NC(=O)C(C)(C)NC(=O)[C@H](CCC(=O)O)NC(=O)[C@H](CC(N)=O)NC(=O)[C@H](CC(C)C)NC(=O)[C@H](CCCCN)NC(=O)[C@H](CCCCN)NC(=O)[C@H](CCCNC(=N)N)NC(=O)[C@H](Cc1ccccc1)NC(=O)[C@H](CCC(=O)O)NC(=O)[C@H](CC(=O)O)NC(=O)[C@H](CC(C)C)NC(=O)[C@@H](NC(=O)[C@@H]1CCCN1)C(C)C)C(=O)N[C@@H](CCCCN)C(=O)N[C@@H](CCC(N)=O)C(=O)N[C@@H](CCCCN)C(=O)N[C@@H](CC(C)C)C(=O)N[C@@H](CCCCN)C(=O)O [compound 69, PVLDEFRKKLNEXLEALKQKLK] (H-PVLDEFRKKLNE[Aib]LEALKQKLK-OH)	13%

Second part, the compound after the results:

ACTIVITY (%) LCAT	Compound
8%	PVLDAFRELLEALLQLKK [compound 222]
7%	GIKKFLGSIWKFIKAFVG [peptide 242, reference compound]
0%	PVLDLFREKLNEELEALKQKLK [compound 106]
45%	CC(=O)N1CCC[C@H]1C(=O)N[C@H](C(=O)N[C@@H](CC(C)C)C(=O)N[C@@H](CC(=O)O)C(=O)N[C@@H](CC(C)C)C(=O)N[C@@H](Cc1ccccc1)C(=O)N[C@@H](CCCNC(=N)N)C(=O)N[C@@H](CCC(=O)O)C(=O)N[C@@H](CC(C)C)C(=O)N[C@@H](CC(C)C)C(=O)N[C@@H](CCC(=O)O)C(=O)N[C@@H](CCC(=O)O)C(=O)N[C@@H](CC(C)C)C(=O)N[C@@H](CCCN)C(=O)N[C@@H](CCC(N)=O)C(=O)N[C@@H](CCCN)C(=O)N[C@@H](CC(C)C)C(=O)N[C@@H](CCCN)C(N)=O)C(C)C [compound 211, PVLDLFRELLEELOQOLO] (Ac-PVLDLFRELLEEL[Orn]Q[Orn]L[Orn]-NH2)
1%	PVLDAFRELGEALLQLKK [compound 226]
0%	CC(C)C[C@H](NC(=O)[C@H](C)NC(=O)[C@H](CCC(=O)O)NC(=O)[C@H](Cc1c[nH]c2ccccc12)NC(=O)C(C)(C)NC(=O)[C@H](CCC(=O)O)NC(=O)[C@H](Cc1c[nH]c2ccccc12)NC(=O)[C@H](CC(C)C)NC(=O)[C@H](CCCCN)NC(=O)[C@H](CCC(=O)O)NC(=O)[C@H](CCCNC(=N)N)NC(=O)[C@H](Cc1ccccc1)NC(=O)[C@H](CCC(=O)O)NC(=O)[C@H](CC(=O)O)NC(=O)[C@H](CC(C)C)NC(=O)[C@@H](NC(=O)[C@@H]1CCCN1)C(C)C)C(=O)N[C@@H](CCCCN)C(=O)N[C@@H](CCC(N)=O)C(=O)N[C@@H](CCCCN)C(=O)N[C@@H](CC(C)C)C(=O)N[C@@H](CCCCN)C(=O)O [compound 111, PVLDEFREKLWEXWEALKQKLK] (H-PVLDEFREKLWE[Aib]WEALKQKLK-OH)
22%	PVLELFLNLLEKLLDALQKKLK [compound 166]
55%	PVLELFENLGERLLDALQKKLK [peptide 151]
11%	PVLELWENLLERLLDALQKKLK [compound 176]
30%	PVLELFLNLLERLLDWLQKKLK [compound 158]
